Data taken from patent US20250346585A1 (Alexion Pharmaceuticals, Inc., priority 2022, published 2025).

What follows are molecules tested against Human complement C1s enzyme (Homo sapiens (Human), UniProt P09871) (assay: Human C1s enzyme assay). Conditions: Human C1s enzyme assay of Example 3; read-out: IC50 (Stars).
Type: biochemical
Summary of the method: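 IC50 derived by nonlinear regression of rate versus concentration, with rate taken from A405 kinetics (30 s intervals, 30 min) after adding 100 μM each Z-L-Lys-SBzl and DTNB. C1s from human serum, 1.16 nM, exposed to compound for 5 min at RT beforehand; buffer 50 mM Tris, 1 M NaCl, pH 7.5.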

Chain of Human complement C1s enzyme (P09871 438-688 limits assumed): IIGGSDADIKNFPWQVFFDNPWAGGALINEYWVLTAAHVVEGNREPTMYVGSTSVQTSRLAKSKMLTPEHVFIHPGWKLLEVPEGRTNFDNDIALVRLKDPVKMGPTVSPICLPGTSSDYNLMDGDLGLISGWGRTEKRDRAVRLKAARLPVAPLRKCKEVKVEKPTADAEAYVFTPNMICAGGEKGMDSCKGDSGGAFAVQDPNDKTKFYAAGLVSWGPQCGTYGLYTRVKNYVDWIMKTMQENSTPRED
Chain of Human complement C1s enzyme (P09871 16-437 partner limits assumed): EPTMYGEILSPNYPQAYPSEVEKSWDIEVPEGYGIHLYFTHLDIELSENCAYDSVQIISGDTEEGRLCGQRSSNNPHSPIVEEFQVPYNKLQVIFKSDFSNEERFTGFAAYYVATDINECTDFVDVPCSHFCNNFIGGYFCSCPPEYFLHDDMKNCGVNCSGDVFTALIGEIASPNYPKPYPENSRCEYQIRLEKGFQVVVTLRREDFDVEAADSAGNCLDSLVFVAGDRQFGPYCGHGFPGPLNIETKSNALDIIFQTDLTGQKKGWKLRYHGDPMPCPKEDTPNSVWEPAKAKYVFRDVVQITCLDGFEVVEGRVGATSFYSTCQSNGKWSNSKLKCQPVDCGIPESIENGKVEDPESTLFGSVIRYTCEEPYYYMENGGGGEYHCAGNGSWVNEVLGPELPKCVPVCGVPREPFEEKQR

| IC50 [nM] | SMILES |
| --- | --- |
| < 100 | CC1(C)c2ccccc2-c2cc(C(=O)NCC(=O)N3CC4(C[C@H]3C(=O)NCc3cc(C(=N)N)cs3)OCCO4)ccc21 [Compound 60, (S)—N-((4-carbamimidoylthiophen-2-yl)methyl)-7-((9,9-dimethyl-9H-fluorene-3-carbonyl)glycyl)-1,4-dioxa-7-azaspiro[4.4]nonane-8-carboxamide] |
| > 1000 | C[C@@H](NC(=O)[C@@H]1CC2(CN1C(=O)CNC(=O)c1ccc3c(c1)-c1ccccc1C3(F)F)OCCO2)c1cc(-c2cnc(N)nc2)cs1 [Compound 100, (S)—N—((R)-1-(4-(2-aminopyrimidin-5-yl)thiophen-2-yl)ethyl)-7-((9,9-difluoro-9H-fluorene-3-carbonyl)glycyl)-1,4-dioxa-7-azaspiro[4.4]nonane-8-carboxamide] |
| < 100 | Cc1ccc(Oc2ccc(C(=O)NCC(=O)N3[C@H]4C[C@@]4(C)C[C@H]3C(=O)N[C@H](C)c3cc(C(=N)N)cs3)cc2)cc1 [Compound 7, (1S,3S,5S)—N—((R)-1-(4-carbamimidoylthiophen-2-yl)ethyl)-5-methyl-2-((4-(p-tolyloxy)benzoyl)glycyl)-2-azabicyclo[3.1.0]hexane-3-carboxamide] |
| < 100 | N=C(N)c1cc(CNC(=O)[C@@H]2CC3(CN2C(=O)CNC(=O)c2ccc(-c4ccccc4)cc2)OCCO3)cs1 [Compound 147, (S)-7-(([1,1′-biphenyl]-4-carbonyl)glycyl)-N-((5-carbamimidoylthiophen-3-yl)methyl)-1,4-dioxa-7-azaspiro[4.4]nonane-8-carboxamide] |
| < 100 | N=C(N)c1csc(CNC(=O)[C@@H]2CC3(CN2C(=O)CNC(=O)c2ccc(-c4cnc5[nH]ccc5c4)cc2)OCCO3)c1 [Compound 195, (S)-7-((4-(1H-pyrrolo[2,3-b]pyridin-5-yl)benzoyl)glycyl)-N-((4-carbamimidoylthiophen-2-yl)methyl)-1,4-dioxa-7-azaspiro[4.4]nonane-8-carboxamide] |
| < 100 | C[C@@H](NC(=O)[C@@H]1CC2(CN1C(=O)CNC(=O)c1ccc(Oc3ccc(F)cc3)cc1)OCCO2)c1cc(C(=N)N)cs1 [Compound 23, (S)—N—((R)-1-(4-carbamimidoylthiophen-2-yl)ethyl)-7-((4-(4-fluorophenoxy)benzoyl)glycyl)-1,4-dioxa-7-azaspiro[4.4]nonane-8-carboxamide] |
| < 100 | C[C@@H](NC(=O)[C@@H]1CC2(CN1C(=O)CNC(=O)c1ccc3[nH]c4ccccc4c3c1)OCCO2)c1cc(C(=N)N)cs1 [Compound 170, (S)-7-((9H-carbazole-3-carbonyl)glycyl)-N—((R)-1-(4-carbamimidoylthiophen-2-yl)ethyl)-1,4-dioxa-7-azaspiro[4.4]nonane-8-carboxamide] |
| < 100 | C[C@@H](NC(=O)[C@@H]1C[C@@H](c2ccccc2)CN1C(=O)CNC(=O)c1ccc2c(c1)-c1ccccc1C2(F)F)c1cc(C(=N)N)cs1 [Compound 81, (2S,4S)—N—((R)-1-(4-carbamimidoylthiophen-2-yl)ethyl)-1-((9,9-difluoro-9H-fluorene-3-carbonyl)glycyl)-4-phenylpyrrolidine-2-carboxamide] |
| < 100 | Cc1cccc2c1-c1cc(C(=O)NCC(=O)N3CC4(C[C@H]3C(=O)N[C@H](C)c3cc(C(=N)N)cs3)OCCO4)ccc1C2(F)F [Compound 177, (S)—N—((R)-1-(4-carbamimidoylthiophen-2-yl)ethyl)-7-((9,9-difluoro-5-methyl-9H-fluorene-3-carbonyl)glycyl)-1,4-dioxa-7-azaspiro[4.4]nonane-8-carboxamide] |
| < 100 | CC(C)OC(=O)/N=C(/N)c1csc([C@@H](C)NC(=O)[C@@H]2CC3(CN2C(=O)CNC(=O)c2ccc4c(c2)-c2ccccc2C4(F)F)OCCO3)c1 [Compound 134, isopropyl ((E)-amino(5-((R)-1-((S)-7-((9,9-difluoro-9H-fluorene-3-carbonyl)glycyl)-1,4-dioxa-7-azaspiro[4.4]nonane-8-carboxamido)ethyl)thiophen-3-yl)methylene)carbamate] |

Same assay, conditions: Human complement C1s enzyme 1.16 nM, substrate Z-L-Lys-SBzl 100 μM, assay of Example 3; read-out: IC50 (Stars)

| IC50 [nM] | SMILES |
| --- | --- |
| < 100 | N=C(N)c1csc(CNC(=O)[C@@H]2CC3(CN2C(=O)CN2Cc4ccc(-c5ccc(F)cc5F)cc4C2=O)OCCO3)c1 [Compound 229, (S)—N-((4-carbamimidoylthiophen-2-yl)methyl)-7-(2-(6-(2,4-difluorophenyl)-1-oxoisoindolin-2-yl)acetyl)-1,4-dioxa-7-azaspiro[4.4]nonane-8-carboxamide] |
| < 100 | C[C@@H](NC(=O)[C@@H]1CC2(CN1C(=O)Cc1ccc(-c3ccc(F)cc3F)cc1)OCCO2)c1cc(C(=N)N)cs1 [Compound 321, (S)—N—((R)-1-(4-carbamimidoylthiophen-2-yl)ethyl)-7-(2-(2′,4′-difluoro-[1,1′-biphenyl]-4-yl)acetyl)-1,4-dioxa-7-azaspiro[4.4]nonane-8-carboxamide] |
| < 100 | N=C(N)c1csc(CNC(=O)[C@@H]2CC3(CN2C(=O)CN2Cc4cc(-c5ccccc5)ccc4C2=O)OCCO3)c1 [Compound 231, (S)—N-((4-carbamimidoylthiophen-2-yl)methyl)-7-(2-(1-oxo-5-phenylisoindolin-2-yl)acetyl)-1,4-dioxa-7-azaspiro[4.4]nonane-8-carboxamide] |

Same assay, conditions: Human complement C1s enzyme 1.16 nM, substrate Z-L-Lys-SBzl; assay of Example 3; read-out: IC50 (Stars)

| IC50 [nM] | SMILES |
| --- | --- |
| < 100 | CS(=O)(=O)[C@@H]1C[C@@H](C(=O)N[C@H](CO)c2cc(C(=N)N)cs2)N(C(=O)CNC(=O)c2ccc3c(c2)C(F)(F)c2ccccc2-3)C1 [Compound 406, (2S,4R)—N—((R)-1-(4-carbamimidoylthiophen-2-yl)-2-hydroxyethyl)-1-((9,9-difluoro-9H-fluorene-2-carbonyl)glycyl)-4-(methylsulfonyl)pyrrolidine-2-carboxamide] |
| < 100 | CO[C@@H]1C[C@@H](C(=O)N[C@H](CO)c2cc(C(=N)N)cs2)N(C(=O)CNC(=O)c2ccc3c(c2)-c2ccccc2C3(F)F)C1 [Compound 407, (2S,4R)—N—((R)-1-(4-carbamimidoylthiophen-2-yl)-2-hydroxyethyl)-1-((9,9-difluoro-9H-fluorene-3-carbonyl)glycyl)-4-methoxypyrrolidine-2-carboxamide] |
